Test results from US11214540B2, “Compositions for treating neurodegenerative diseases” (COGNITION THERAPEUTICS, INC., priority 2017, dated 2022).
Like-named read-outs stand apart in the source and are kept apart here.

How the values were obtained:
[1] = target: potassium channel hERG (Homo sapiens (Human), UniProt Q12809); assay: In vitro testing for hERG inhibition; format: biochemical; conditions: in vitro toxicity potassium channel hERG
Method: In vitro testing for hERG inhibition was performed in a standard assay (See: Haverkamp W, Breithardt G, Carnm A J, Janse M J, Rosen M R, Antzelevitch C, Escande D, Franz M, Malik M, Moss A and Shah R. (2000) Eur Heat J 21 (15); 1216-31).

[2] = test system: Abeta oligomer-induced membrane trafficking deficits in primary hippocampal neurons; assay: Membrane Trafficking/Exocytosis (MTT) assay, Abeta oligomer effect on neurons; format: cell-based, rat; conditions: membrane trafficking, read-out: EC50 Abeta;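 further: compound potency for inhibiting the Abeta oligomer effect on exocytosis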
In short: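 Rat E18 hippocampal neurons cultured 3 weeks received compound (100 uM to 0.001 nM), then vehicle or Abeta 1-42 oligomers (3 μM total Abeta), for 1-24 h at 37 °C. MTT was added for 1 h, and formazan vesicle exocytosis was quantified by automated imaging with DAPI toxicity check. Tukey-Kramer comparisons were made with N=4.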

[3] = log P; format: physicochemical; conditions: for logP: octanol/water
In short: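 Ratio of un-ionized compound concentrations between octanol and water, with aqueous pH set so the un-ionized form predominates. Value given as the log of the octanol/water ratio.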

[4] = target: Sigma-1 receptors on Jurkat cell membranes (Homo sapiens (Human), UniProt Q99720); assay: Competitive Radioligand Binding Assay 1, Sigma-1 binding ([3H](+)pentazocine displacement); conditions: sigma-1 receptor affinity; read-out: S1 Ki
Sequence of Sigma-1 receptors on Jurkat cell membranes (Q99720 whole entry): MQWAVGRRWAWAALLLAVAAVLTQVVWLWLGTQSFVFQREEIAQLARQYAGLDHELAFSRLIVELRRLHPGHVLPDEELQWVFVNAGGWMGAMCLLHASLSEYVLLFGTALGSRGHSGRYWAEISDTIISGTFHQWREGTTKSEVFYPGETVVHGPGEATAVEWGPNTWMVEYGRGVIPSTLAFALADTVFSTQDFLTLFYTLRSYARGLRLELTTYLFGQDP
Method: Certain compounds were tested for interaction with several receptors by blocking the binding or action of their agonists or antagonists. Some compounds were tested to see whether they interact directly with known cellular receptor or signaling proteins. Compounds can be tested for the ability to displace binding of known agonists or antagonists of a given human receptor that was overexpressed in cell lines or isolated from tissue. Compounds can also be tested for the ability to block downstream signaling induced by agonists or antagonists of a given human receptor. Compounds can be tested for action at 100 known receptors, and it is desirable that specific activity will occur at only a small subset of CNS-relevant receptors.
For Sigma-1 binding, various concentrations of test compounds from 100 μM to 1 nM were used to displace 8 nM [3H](+)pentazocine from endogenous receptors on Jurkat cell membranes (Ganapathy M E et al. 1991, J Pharmacol. Exp. Ther. 289:251-260). 10 μM Haloperidol was used to define non-specific binding. […] (Bowen W D, et al. 1993, Mol. Neuropharmcol 3:117-126). 10 μM Haloperidol was used to define non-specific binding. Reactions were terminated by rapid filtration through Whatman GF/C filters using a Brandel 12R cell harvester followed by two washes with ice-cold buffer. Radioactivity on the dried filter discs was measured using a liquid scintillation analyzer (Tri-Carb 2900TR; PerkinElmer Life and Analytical Sciences). The displacement curves were plotted and the Ki values of the test compounds for the receptor subtypes were determined using GraphPad Prism (GraphPad Software Inc., San Diego, Calif.). The percentage specific binding was determined by dividing the difference between total bound (disintegrations per minute) and nonspecific bound (disintegrations per minute) by the total bound (disintegrations per minute). […]

[5] = target: Sigma-2 receptors on membranes from rat cerebral cortex (Rattus norvegicus (Rat), UniProt Q5U3Y7); assay: Competitive Radioligand Binding Assay 1, Sigma-2 binding ([3H]DTG displacement with (+)pentazocine mask); conditions: sigma-2 receptor affinity; read-out: S2 Ki
Sequence of Sigma-2 receptors on membranes from rat cerebral cortex (Q5U3Y7 whole entry): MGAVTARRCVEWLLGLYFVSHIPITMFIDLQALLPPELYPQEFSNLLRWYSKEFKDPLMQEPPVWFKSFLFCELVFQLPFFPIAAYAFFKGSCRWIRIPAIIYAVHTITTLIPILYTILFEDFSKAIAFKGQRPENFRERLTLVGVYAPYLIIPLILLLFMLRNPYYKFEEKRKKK
Method: Using the same protocol, some compounds for which membrane trafficking data are given in Table 1 were tested for recognition of sigma-2 receptor. Certain compounds preferentially bind to the sigma-2 receptor.
For Sigma-1 binding, various concentrations of test compounds from 100 μM to 1 nM were used to displace 8 nM [3H](+)pentazocine from endogenous receptors on Jurkat cell membranes (Ganapathy M E et al. 1991, J Pharmacol. Exp. Ther. 289:251-260). 10 μM Haloperidol was used to define non-specific binding. […] (Bowen W D, et al. 1993, Mol. Neuropharmcol 3:117-126). 10 μM Haloperidol was used to define non-specific binding. Reactions were terminated by rapid filtration through Whatman GF/C filters using a Brandel 12R cell harvester followed by two washes with ice-cold buffer. Radioactivity on the dried filter discs was measured using a liquid scintillation analyzer (Tri-Carb 2900TR; PerkinElmer Life and Analytical Sciences). The displacement curves were plotted and the Ki values of the test compounds for the receptor subtypes were determined using GraphPad Prism (GraphPad Software Inc., San Diego, Calif.). The percentage specific binding was determined by dividing the difference between total bound (disintegrations per minute) and nonspecific bound (disintegrations per minute) by the total bound (disintegrations per minute).
Affinities for Sigma-1 and Sigma-2 receptors are typically obtained from published studies using cerebral tissue homogenates with [3H](+)pentazocine to measure displacement from Sigma-1 receptors and [3H] 1,3-Di-(2-tolyl)guanidine in the presence of 300 nM (+)pentazocine to measure displacement from Sigma-2 receptors.

[6] = Mouse liver microsome (MLM) stability; format: in vitro ADME; conditions: microsomal stability in mouse liver microsomes (MLM)
Method: A first pharmacokinetic study was performed in microsomes of mice mouse liver microsomes, MLM).
Microsomal stability experiments and plasma stability experiments were performed to determine metabolic and hepatic stability of candidate compounds.

[7] = Rattus norvegicus, Hippocampal neuron

Sequence of potassium channel hERG (Q12809 whole entry): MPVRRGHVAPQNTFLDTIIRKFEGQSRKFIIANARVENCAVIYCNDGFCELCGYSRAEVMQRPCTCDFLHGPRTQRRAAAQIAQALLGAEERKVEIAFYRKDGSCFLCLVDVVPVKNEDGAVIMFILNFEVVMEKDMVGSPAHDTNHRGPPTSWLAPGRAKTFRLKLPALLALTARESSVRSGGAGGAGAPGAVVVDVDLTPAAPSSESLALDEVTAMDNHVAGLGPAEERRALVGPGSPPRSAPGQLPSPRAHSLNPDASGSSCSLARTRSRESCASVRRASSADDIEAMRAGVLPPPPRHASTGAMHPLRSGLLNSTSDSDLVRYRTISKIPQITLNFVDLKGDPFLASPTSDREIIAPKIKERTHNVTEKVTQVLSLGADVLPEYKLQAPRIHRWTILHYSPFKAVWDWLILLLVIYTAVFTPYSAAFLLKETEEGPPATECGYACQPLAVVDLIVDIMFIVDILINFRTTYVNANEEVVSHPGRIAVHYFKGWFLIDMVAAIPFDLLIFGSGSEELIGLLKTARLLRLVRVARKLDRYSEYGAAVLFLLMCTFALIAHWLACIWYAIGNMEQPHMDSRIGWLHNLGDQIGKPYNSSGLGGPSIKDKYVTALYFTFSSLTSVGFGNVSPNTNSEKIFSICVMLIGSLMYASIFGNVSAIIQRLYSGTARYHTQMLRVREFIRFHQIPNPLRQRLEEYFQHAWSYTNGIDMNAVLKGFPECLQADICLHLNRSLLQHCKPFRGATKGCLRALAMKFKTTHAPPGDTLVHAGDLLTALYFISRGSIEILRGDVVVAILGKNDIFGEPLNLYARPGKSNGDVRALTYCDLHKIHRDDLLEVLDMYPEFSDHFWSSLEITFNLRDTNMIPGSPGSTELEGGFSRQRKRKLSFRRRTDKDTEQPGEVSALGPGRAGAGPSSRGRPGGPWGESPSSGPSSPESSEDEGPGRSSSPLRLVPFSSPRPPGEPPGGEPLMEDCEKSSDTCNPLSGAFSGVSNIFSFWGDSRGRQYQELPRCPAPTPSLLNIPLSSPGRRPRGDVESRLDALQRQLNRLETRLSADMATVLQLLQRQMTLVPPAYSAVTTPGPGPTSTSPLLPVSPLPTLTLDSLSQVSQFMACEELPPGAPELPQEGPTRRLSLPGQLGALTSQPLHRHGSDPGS

Structure (SMILES) | log P [3] | Ki [4] | Ki [5] | MLM T1/2 [6] | logP [3] | IC50 [1] | EC50 [2] | EC50 [2, 7]
COC1CCN(C(C)CC(C)(C)c2ccc(C(F)(F)F)cc2)CC1 (stereo not shown) [Compound 6] | 4.49 | 0.3 nM | 1 nM |  |  | 0.75 µM | > 15 µM | 
CC(C)(CCN1CCC(O)CC1)c1ccc(Cl)cc1 [Compound 8] | 3.16 | 0.4 nM | 1.6 nM |  |  | 14 µM | 0.25 µM | 
COC1CCN(CCC(C)(C)c2ccc(Cl)cc2)CC1 [Compound 10] | 3.8 | 0.7 nM | 2.1 nM |  |  | 11 µM | 1.26 µM | 
CC(C)=CC(CC(C)(C)c1ccc(Cl)cc1)N1CCC(C2CCOCC2)CC1 (stereo not shown) [Compound 11] | 6.31 |  | 2.2 nM | 26, min. |  | 1.5 µM | 3 µM | 
CC(C)=CC(COc1ccc(F)cc1)N1CCC(O)CC1 (stereo not shown) [Compound 18] | 2.72 | 2.6 nM | 5.6 nM |  |  | 29 µM | 0.25 µM | 
CC(CC(C)(C)c1ccc(F)cc1)N1CCC(CO)CC1 (stereo not shown) [Compound 19] | 3.57 | 2.2 nM | 6 nM |  |  | 37 µM | < 0.25 µM | 
CC(C)=CC(CCc1ccc(F)cc1)N1CCC(C2CCOCC2)CC1 (stereo not shown) [Compound 21] | 5.26 | 8 nM | 6.2 nM | 11 min |  | 0.83 µM | 20 µM | 
COC1CCN(C(C=C(C)C)CC(C)(C)c2ccc(C(F)(F)F)cc2)CC1 (stereo not shown) [Compound 39] | 5.49 | 25 nM | 43 nM |  |  | 8.2 µM | 0.6 µM | 
COCCOCCC1CCN(C(C=C(C)C)CC(C)(C)c2ccc(C(F)(F)F)cc2)CC1 (stereo not shown) [Compound 40] | 6.28 | 170 nM | 44 nM |  |  | 9.6 µM | 0.83 µM | 
CC(C)=CC(CC(C)(C)c1ccc(C(F)(F)F)cc1)N1CCC(OC(C)C)CC1 (stereo not shown) [Compound 44] | 6.27 | 260 nM | 79 nM |  |  | 9.2 µM | 1.4 µM | 
CCOC1CCN(C(C=C(C)C)CC(C)(C)c2ccc(F)cc2)CC1 (stereo not shown) [Compound 59] | 5.12 | 600 nM | 160 nM |  |  | 73 µM | 0.25 µM | 
CC(=O)N1CCN(C(C=C(C)C)CC(C)(C)c2ccc(Cl)cc2)CC1 (stereo not shown) [Compound 75] | 4.33 | 690 nM | 690 nM |  |  | 15 µM | 0.25 µM | 
CC(C)=C[C@@H](CC(C)(C)c1ccc(C(F)(F)F)cc1)N1CCC[C@@H]1CO [Compound 83] | 5.31 | 1000 nM | 1000 nM |  |  | 14 µM | 3.8 µM | 
COC[C@H]1CCCN1C(C)CC(C)(C)c1ccc(Cl)cc1 (stereo partly shown) [Compound 84] | 4.67 | 1000 nM | 1000 nM |  |  | 3.9 µM | 0.25 µM | 
CC(C)=CC(CCc1ccc(C)cc1)N1CCOCC1 (stereo not shown) [Compound 93] | 4.36 |  |  | 3.4 min |  |  | 20 µM | 
CC(C)=CC(CCc1ccc(C)cc1)N1CCCCC1 (stereo not shown) [Compound 94] | 5.43 |  |  | 1.8 min |  |  | 20 µM | 
CC(C)=CC(CCc1ccc(Cl)cc1)N1CCOCC1 (stereo not shown) [Compound 95] | 4.45 |  |  | 1.5 min |  |  | 20 µM | 
CC(C)=CC(CCc1ccc(Cl)cc1)N1CCCCC1 (stereo not shown) [Compound 96] | 5.52 |  |  | 6.2 min |  |  | 1.6 µM | 
CC(C)=CC(CC(C)(C)c1ccc(C)cc1)N1CCC2(CCOCC2)CC1 (stereo not shown) [Compound 97] | 5.78 |  |  | 8.7 min |  |  | 10 µM | 

Second part, led by results:

log P [3] | Ki [4] | Ki [5] | MLM T1/2 [6] | logP [3] | Structure (SMILES) | IC50 [1] | EC50 [2] | EC50 [2, 7]
5.11 |  |  | 1.7 min |  | COc1ccc(C(C)(C)CC(C=C(C)C)N2CCC3(CCOCC3)CC2)cc1 (stereo not shown) [Compound 98] |  | 20 µM | 
4.08 |  |  | 7.4 min |  | COc1ccc(C(C)(C)CC(C=C(C)C)NC2CCOCC2)cc1 (stereo not shown) [Compound 99] |  | 20 µM | 
4.75 |  |  | 4.5 min |  | CC(C)=CC(CC(C)(C)c1ccc(C)cc1)NC1CCOCC1 (stereo not shown) [Compound 100] |  | 13.6 µM | 
5.57 |  |  | 1.8 min |  | CC(C)=CC(CC(C)(C)c1ccc(C)cc1)NCCC1CCOCC1 (stereo not shown) [Compound 101] |  | 9.6 µM | 
4.9 |  |  | 1.5 min |  | COc1ccc(C(C)(C)CC(C=C(C)C)NCCC2CCOCC2)cc1 (stereo not shown) [Compound 102] |  | 20 µM | 
4.76 |  |  | 1.1 min |  | COc1ccc(CCC(C=C(C)C)N2CCCCC2)cc1 (stereo not shown) [Compound 103] |  | 20 µM | 
3.69 |  |  | 1.3 min |  | COc1ccc(CCC(C=C(C)C)N2CCOCC2)cc1 (stereo not shown) [Compound 104] |  | 20 µM | 
5.72 |  |  | 1.3 min |  | CC(C)=CC(CCc1ccc(Cl)cc1)N1CCC(C2CCOCC2)CC1 (stereo not shown) [Compound 105] |  | 20 µM | 
5.35 |  |  | 3.9 min |  | COc1ccc(C(C)(C)CC(C=C(C)C)NCCCC2CCOCC2)cc1 (stereo not shown) [Compound 106] |  | 20 µM | 
5.21 |  |  | 3.5 min |  | CC(C)=CC(CC(C)(C)c1ccc(C)cc1)N1CCC2(CC1)COC2 (stereo not shown) [Compound 107] |  | 20 µM | 
4.46 |  |  | 7.3 min |  | COc1ccc(C(C)(C)CC(C=C(C)C)N(C)C2CCOCC2)cc1 (stereo not shown) [Compound 108] |  | 20 µM | 
5.13 |  |  | 5.4 min |  | CC(C)=CC(CC(C)(C)c1ccc(C)cc1)N(C)C1CCOCC1 (stereo not shown) [Compound 109] |  | 20 µM | 
5.73 |  |  | 2.6 min |  | COc1ccc(C(C)(C)CC(C=C(C)C)N(C)CCCC2CCOCC2)cc1 (stereo not shown) [Compound 110] |  | 20 µM | 
5.68 |  |  | 6.8 min |  | CC(C)=CC(CC(C)(C)c1ccc(Cl)cc1)N(C)CC1CCOCC1 (stereo not shown) [Compound 111] |  | 20 µM | 
5.59 |  |  | 4.9 min |  | CC(C)=CC(CC(C)(C)c1ccc(C)cc1)N(C)CC1CCOCC1 (stereo not shown) [Compound 112] |  |  | 
4.92 |  |  | 8.2 min |  | COc1ccc(C(C)(C)CC(C=C(C)C)N(C)CC2CCOCC2)cc1 (stereo not shown) [Compound 113] |  | 20 µM | 
5.63 |  |  | 1.8 min |  | CC(C)=CC(CCc1ccc(C)cc1)N1CCC(C2CCOCC2)CC1 (stereo not shown) [Compound 114] |  |  | 
 | 1.9 nM | 3 nM |  | 3.71 | CC1(O)CCN(CCC(C)(C)c2ccc(C(F)(F)F)cc2)CC1 [Example 14] | 18 µM |  | 3.7 µM
 | 1.3 nM | 5.1 nM |  | 3.43 | CC(C)(CCN1CCC(O)CC1)c1ccc(C(F)(F)F)cc1 [Example 17] | 11 µM |  | 2.24 µM
